Publication PMC7414866, “The Rnf complex is a Na^+ coupled respiratory enzyme in a fermenting bacterium, Thermotoga maritima” (Communications Biology, 2020)

Target: T1, Na+-F1FO ATP synthase (Thermotoga maritima, UniProt O50550+Q9X1U7+Q9X1V0)
T1 construct: gene atpE; native F1FO complex purified with DDM, no tags; 550 kDa on native PAGE; co-purified with Rnf; with ATP synthase gamma chain; ATP synthase subunit delta; ATP synthase epsilon chain; ATP synthase subunit a; ATP synthase subunit b
Assay: ATP hydrolysis (phosphate release) after preincubation
Type: biochemical
Settings: covalent; preincubation without Na+ 30 min room temperature, then 5 min 80 °C; 3 mM K2-ATP, pH 7.4; competes with Na+

In the case of C(=NC1CCCCC1)=NC1CCCCC1 [DCCD], the inhibition is reported as “DCCD inhibited ATP hydrolysis but inhibition was relieved by addition of Na^+”.
